Results published in US20250066722A1, “METHODS FOR PRODUCTION OF FUNCTIONAL NEURONS” (AXENT BIOSCIENCES INC., priority 2021, published 2025).

Tested on: Human induced pluripotent stem cells (hPSCs)
Experiment: 3D dopaminergic neuron differentiation of hPSCs with tyrosine hydroxylase immunocytochemistry
Type: cell-based
Settings: for expression of tyrosine hydroxylase in differentiating aggregates: by day 20, immunocytochemistry, FGF8, TGF-β, BDNF, GDNF removed and replaced with BT-13 or Q525, FIGS. 3 and 5; for production of hPSC-derived neurons expressing the functional biomarker Tyrosine Hydroxylase: replacement of GDNF, BDNF and TGF-β in maturation media from Day 11, BT-13 5 μM or Q525 5 nM, with DAPT 10 uM, 3D AXgel
Description: Human Pluripotent Stem Cell Culture. Human […] (hPSCs) (ThermoFisher A 18945) were subcultured in monolayer format on a layer of 1% Matrigel and maintained in Essential 8 medium during expansion. At 80% confluency, H9s were passaged using Versene solution and replated at a 1:8 split.
3D hPSC Culture Seeding. hPSCs were dissociated into single cells using Accutase solution and resuspended in Essential 8 (E8) medium containing 10 μM Y-27632 (Rock Inhibitor, RI). hPSCs were counted and resuspended at defined densities in 11% AXgel on ice. Cells suspended in AXgel were dispensed into a multi-well tissue culture plate and heated to 37° C. for 15 minutes and afterward pre-warmed E8 medium containing 10 μM RI was added to each well. 3D cell suspensions remained in E8 with RI for 2 days (from Day −2 to Day 0).
3D Dopaminergic Neuron Differentiation. Starting Day 0, hPSCs in AXgel were transitioned to differentiation media to induce neural lineage commitment and subsequently specification into midbrain dopaminergic neurons. Starting Day 11, neural precursors were transitioned to maturation media containing GDNF agonist BT-13 (5 μM) or Q525 (5 nM) in place of proteins GDNF, BDNF, and TGF-β. Media formulations were according to Table 2: […]
Immunocytochemistry. At the endpoint of the experiment, cell aggregates were harvested from AXgel by replacing warm media with chilled media and plated on 8-chamber culture slides coated with 10 μg/mL laminin and cultured overnight in the incubator to allow aggregates to adhere to the surface. Aggregates attached to the culture slide were then fixed using 4% paraformaldehyde (PFA) for 15 minutes. Aggregates were washed twice in PBS for 5 minutes each and incubated in 0.25% Triton-X+5% donkey serum in PBS for 10 minutes to permeabilize cells. After permeabilization, aggregates were washed 5 times in 5% donkey serum for 5 minutes each and incubated with primary antibodies of interest diluted in PBS+donkey serum (dilution details in Table 3), and stored overnight at 4° C. After primary staining, aggregates were washed twice in PBS for 5 minutes each and incubated in solution containing the corresponding secondary antibodies (dilution details in Table 3), and incubated at 37° C. for 2 hours. After secondary staining, aggregates were washed twice in PBS for 5 minutes each and culture slides were mounted with a cover slip to be imaged.
Microscopy. Live cell aggregates suspended in AXgel were periodically imaged during the experiment using an EVOS XL Core Imaging System for transmitted light microscopy available in the Cell and Tissue Analysis Facility through QB3-Berkeley. Fixed, stained, and mounted cell aggregates were imaged with a 20× or 40× objective using a Perkin Elmer Opera Phenix automated confocal fluorescence microscope available in the High-Throughput Screening Facility through QB3-Berkeley. Laser exposure time and power was kept constant for a fluorescence channel within an imaging set.

| Structure (SMILES) | expression of tyrosine hydroxylase in differentiating aggregates | production of hPSC-derived neurons expressing the functional biomarker Tyrosine Hydroxylase | tyrosine hydroxylase-positive neurons (FIG. 5) (day 18, 10 nM Q525 in differentiation media free of GDNF, BDNF and TGFβ3, induction media without FGF8) |
| --- | --- | --- | --- |
| CCN(CC)S(=O)(=O)c1ccc(OC)c(N2CCN(C(=O)c3ccc(F)cc3C(F)(F)F)CC2)c1 [BT-13, N,N-diethyl-3-[4-[4-fluoro-2-(trifluoromethyl)-benzoyl]piperazin-1-yl]-4-methoxybenzenesulfonamide] | detected in neuronal cell bodies within all of the differentiating aggregates | sufficient to produce hPSC-derived neurons expressing the functional biomarker Tyrosine Hydroxylase | – |
| O=C1C(Nc2ccc(CO)cc2)=C(O)C(=O)c2ncccc21 [Q525] | detected in neuronal cell bodies within all of the differentiating aggregates | sufficient to produce hPSC-derived neurons expressing the functional biomarker Tyrosine Hydroxylase | tyrosine hydroxylase-positive neurons at day 18 |
